Assay: Brain pharmacokinetics of tianeptine and its 5-carbon metabolite (7i) in mice
Description: Experimental Protocol for PK Studies. […] Brain samples were collected from three mice at 0.08, 0.25, 0.5, 1, 2, 4, 8 and 24 h, homogenized using ice-cold phosphate buffer saline (pH 7.4), and stored below -70° C. until analysis. Total homogenate volume was three times the tissue weight. All samples were processed for analysis by protein precipitation using acetonitrile (ACN) and analyzed with a fit-for-purpose LC/MS/MS method (LLOQ - 1.01 ng/mL in brain). Pharmacokinetic parameters were calculated using the non-compartmental analysis tool of Phoenix WinNonlin® (Version 6.3).

[1] = C57BL/6 mice, single injection of tianeptine 30 mg/kg i.p.
[2] = mice, after tianeptine 30 mg/kg i.p., in words

In the case of `CN1c2ccccc2C(NCCCCC(=O)O)c2ccc(Cl)cc2S1(=O)=O.Cl` (stereo not drawn) [Compound 7i], the AUClast [1] is reported as 5963 ng·h/g, the CL [1] is reported as 78 mL/min/kg and the Tmax [1] is reported as 0.5 h. The T½ [1] was 2.33 h, the “brain exposure (as measured by AUC) compared to the parent compound (tianeptine)” value [2] was “greater brain exposure” and the “half-life compared to the parent compound (tianeptine)” value [2] was “significantly longer half-life”.

Source: US20230365519A1, “CARBOXYLIC DIARYLTHIAZEPINEAMINES AND USES THEREOF” (Kures, Inc., priority 2020, published 2023)
